Measured values published in the NIST ThermoML archive (doi:10.1016/j.jct.2018.02.005).
± gives the expanded uncertainty stated by the source.

Assay: refractive index (Na D-line) (dimensionless)
Conditions: 298.15 K; 100 kPa; Liquid; Standard Abbe refractometry

| refractive index | Structure (SMILES) |
| --- | --- |
| 1.35947 ± 0.00033 | CCO [ethanol] |
| 1.32655 ± 0.00031 | CO [methanol] |
| 1.37503 ± 0.00033 | CC(C)O [propan-2-ol] |
| 1.33251 ± 0.00031 | O [water] |
